ChEMBL document CHEMBL1201862, “PubChem BioAssay data set” (2004)
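Step 1: Grow cells in 96-well plates. Step 2: Expose to compound for 48 hours at 5 concentrations. Step 3: Interpolate endpoints linearly; if unreached, use highest concentration. GI50 = concentration required for 50% inhibition of growth.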 Active and inactive are the calls of the source. Cut-off read from the data, not from the text of the source: active = GI50 up to about 1.1 µM and inactive = higher.

How the values were obtained:
Assay in all cases: NCI-60 cell line screen, 48 h
SW-620 = test system: SW-620
SNB-19 = test system: SNB-19
OVCAR-4 = test system: OVCAR-4
PC-3 = test system: PC-3
LOX IMVI = test system: LOX IMVI
A549 = test system: A549
SK-OV-3 = test system: SK-OV-3
COLO 205 = test system: COLO 205
U-251 = test system: U-251
TK-10 = test system: TK-10
EKVX = test system: EKVX
SK-MEL-28 = test system: SK-MEL-28
HOP-62 = test system: HOP-62
SN12C = test system: SN12C
IGROV-1 = test system: IGROV-1
NCI-H522 = test system: NCI-H522
MDA-MB-435 = test system: MDA-MB-435
MOLT-4 = test system: MOLT-4
CCRF-CEM = test system: CCRF-CEM

Measured: GI50

CC(C)(O)/C=C\P(C)(=O)c1ccccc1 (centres undefined)
inactive: SW-620 > 100 µM | SNB-19 > 100 µM | OVCAR-4 > 100 µM | PC-3 > 100 µM | LOX IMVI > 100 µM | A549 > 100 µM | SK-OV-3 > 100 µM | COLO 205 > 100 µM | U-251 > 100 µM | TK-10 > 100 µM | EKVX > 100 µM | SK-MEL-28 > 100 µM | HOP-62 > 100 µM | SN12C > 100 µM | IGROV-1 > 100 µM | NCI-H522 > 100 µM | MDA-MB-435 > 100 µM

CSc1nncc(-c2cc3c(c(SC)n2)CCCC3)n1
inactive: SW-620 > 100 µM | SNB-19 > 100 µM | OVCAR-4 > 100 µM | MOLT-4 > 100 µM | PC-3 > 100 µM | A549 > 100 µM | SK-OV-3 40.1 µM | COLO 205 > 100 µM | U-251 > 100 µM | TK-10 > 100 µM | EKVX > 100 µM | CCRF-CEM > 100 µM | SK-MEL-28 > 100 µM | HOP-62 30.5 µM | SN12C > 100 µM | NCI-H522 53.7 µM | MDA-MB-435 > 100 µM

O=C(NN1C(=O)CSC1c1ccco1)c1ccncc1 (centres undefined)
inactive: SW-620 > 100 µM | SNB-19 > 100 µM | OVCAR-4 > 100 µM | MOLT-4 > 100 µM | PC-3 > 100 µM | A549 > 100 µM | SK-OV-3 > 100 µM | COLO 205 > 100 µM | U-251 > 100 µM | TK-10 > 100 µM | EKVX > 100 µM | CCRF-CEM > 100 µM | SK-MEL-28 > 100 µM | HOP-62 > 100 µM | SN12C > 100 µM | IGROV-1 > 100 µM | NCI-H522 > 100 µM | MDA-MB-435 > 100 µM

Nc1nc2c(c(-c3cccc(Cl)c3)n1)COC/C2=C\c1cccc(Cl)c1
inactive: SW-620 > 100 µM | SNB-19 > 100 µM | OVCAR-4 > 100 µM | MOLT-4 > 100 µM | PC-3 > 100 µM | LOX IMVI > 100 µM | SK-OV-3 > 100 µM | COLO 205 > 100 µM | U-251 > 100 µM | TK-10 41.8 µM | EKVX > 100 µM | CCRF-CEM > 100 µM | SK-MEL-28 > 100 µM | HOP-62 > 100 µM | SN12C > 100 µM | IGROV-1 94.2 µM | NCI-H522 > 100 µM | MDA-MB-435 > 100 µM

[O-][s+]1c2c(Cc3ccccc3)c(Cc3ccccc3)c1CCc1cccc(c1)CC2
inactive: SW-620 24.5 µM | SNB-19 14.6 µM | OVCAR-4 5.02 µM | MOLT-4 14 µM | PC-3 13.3 µM | LOX IMVI 14 µM | A549 13.9 µM | SK-OV-3 10.7 µM | COLO 205 17.5 µM | U-251 13.9 µM | TK-10 19.1 µM | EKVX 13.2 µM | CCRF-CEM 19.6 µM | SK-MEL-28 20.7 µM | SN12C 16.2 µM | NCI-H522 11.3 µM | MDA-MB-435 12.9 µM

CC(=O)Nc1sccc1S(=O)(=O)c1ccc(Cl)cc1
inactive: SW-620 > 100 µM | SNB-19 > 100 µM | OVCAR-4 > 100 µM | MOLT-4 > 100 µM | PC-3 > 100 µM | A549 > 100 µM | SK-OV-3 > 100 µM | COLO 205 > 100 µM | U-251 > 100 µM | TK-10 > 100 µM | EKVX > 100 µM | CCRF-CEM > 100 µM | SK-MEL-28 > 100 µM | SN12C > 100 µM | IGROV-1 > 100 µM | NCI-H522 > 100 µM | MDA-MB-435 > 100 µM

Cc1ccc(Oc2cc(C)ccc2P(=O)(O)O)cc1
inactive: SW-620 > 100 µM | SNB-19 > 100 µM | MOLT-4 > 100 µM | PC-3 > 100 µM | LOX IMVI > 100 µM | A549 > 100 µM | SK-OV-3 > 100 µM | COLO 205 > 100 µM | TK-10 > 100 µM | EKVX > 100 µM | CCRF-CEM > 100 µM | SK-MEL-28 > 100 µM | HOP-62 > 100 µM | SN12C > 100 µM | IGROV-1 > 100 µM | NCI-H522 > 100 µM | MDA-MB-435 > 100 µM

O=C(/C=C/c1ccsc1)c1cccs1
inactive: SW-620 17.3 µM | SNB-19 42.6 µM | OVCAR-4 44.8 µM | MOLT-4 > 10 µM | PC-3 69.5 µM | A549 33 µM | SK-OV-3 39.1 µM | COLO 205 34.1 µM | U-251 20.5 µM | TK-10 23.1 µM | EKVX 41.3 µM | CCRF-CEM 18.5 µM | SK-MEL-28 20.9 µM | HOP-62 > 100 µM | SN12C 19.5 µM | IGROV-1 53.2 µM | NCI-H522 18.7 µM | MDA-MB-435 > 10 µM
